Columns and labels:
[1] = system: HCT116 colorectal cancer cells; experiment: Cisplatin sensitization assay, 96 h cell viability (MTS); type: cell-based; conditions: 96 h MTS, concentration of compound required to reduce the IC50 of Cisplatin
Protocol: Compounds can be screened for their ability to sensitize HCT116 colorectal cancer cells to Cisplatin using a 96 h cell viability (MTS) assay. […] Compounds and Cisplatin are then both added simultaneously to the cell media in 2-fold serial dilutions from a top final concentration of 10 μM as a full matrix of concentrations in a final cell volume of 200 μl, and the cells are then incubated at 37° C. in 5% CO2. After 96 h, 40 μl of MTS reagent (Promega G358a) is added to each well and the cells are incubated for 1 h at 37° C. in 5% CO2.
Compounds with a Cisplatin sensitization value of <0.02 μM are marked with “+++.” Compounds with a Cisplatin sensitization value >0.02 μM but <0.2 μM are marked with “++.” Compounds with a Cisplatin sensitization value >0.2 μM but <5 μM are marked with “+.”

[2] = target: ATR kinase (full-length ATR) (Homo sapiens (Human), UniProt Q13535); experiment: ATR inhibition assay (radioactive-phosphate incorporation); type: biochemical; conditions: Ki(app), 5 nM full-length ATR, 10 μM ATP, 25° C.
Method in brief: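 Radiometric 33P incorporation by 5 nM full-length ATR into 800 μM target peptide with 10 μM [γ-33P]ATP, in 50 mM Tris/HCl pH 7.5, 10 mM MgCl2, 1 mM DTT, 7% DMSO, 25° C. Compound pre-incubated 10 minutes; reaction stopped after 24 hours, captured on phosphocellulose. Ki(app) from non-linear regression of initial rates.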

[3] = target: ATR kinase, in the presence of partner proteins ATRIP, CLK2 and TopBP1 (Homo sapiens (Human), UniProt Q13535); experiment: ATR-complex inhibition assay (radioactive-phosphate incorporation); type: biochemical; conditions: Ki(app); 4 nM full-length ATR, 40 nM ATRIP, 40 nM CLK2, 600 nM TopBP1; 10 μM ATP; 25° C.
Protocol: Compounds were screened for their ability to inhibit ATR kinase, in the presence of partner proteins ATRIP, CLK2 and TopBP1, using a radioactive-phosphate incorporation assay. Assays were carried out in a mixture of 50 mM Tris/HCl (pH 7.5), 10 mM MgCl2 and 1 mM DTT. Final substrate concentrations were 10 μM [g-33P]ATP (3.5 μCi 33P ATP/nmol ATP, Perkin Elmer, Massachusetts, USA) and 800 μM target peptide ([…]) (SEQ ID NO: 1); Isca Biochemicals, Cambridgeshire, UK).
Assays were carried out at 25° C. in the presence of 4 nM full-length ATR, 40 nM full-length ATRIP, 40 nM full-length CLK2 and 600 nM TopBP1 (A891-S1105). An enzyme stock buffer solution was prepared containing all of the reagents listed above, with the exception of target peptide, ATP and the test compound of interest. This enzyme stock was pre-incubated for 30 minutes at 25° C. 8.5 μL of the enzyme stock solution was placed in a 96-well plate followed by addition of 5 μl of target peptide and 2 μL of DMSO stock containing serial dilutions of the test compound (typically starting from a final concentration of 1.5 μM with 2.5-fold serial dilutions) in duplicate (final DMSO concentration 7%). The plate was pre-incubated for 10 minutes at 25° C. and the reaction initiated by addition of 15 μL [g-33P]ATP (final concentration 10 μM).
The reaction was stopped after […] by the addition of 30 μL 0.3 M phosphoric acid containing 2 mM ATP. A phosphocellulose filter 96-well plate (Multiscreen HTS MAPHNOB50, Merck-Millipore, Massachusetts, USA) was pretreated with 100 μL 0.1 M phosphoric acid prior to the addition of 45 μL of the stopped assay mixture. The plate was washed with 5×200 μL 0.1 M phosphoric acid. After drying, 50 μL Optiphase ‘SuperMix’ liquid scintillation cocktail (Perkin Elmer, Massachusetts, USA) was added to the well prior to scintillation counting (Wallac 1450 Microbeta Liquid Scintillation Counter, Perkin Elmer, Massachusetts, USA).
After removing mean background values for all of the data points, Ki(app) data were calculated from non-linear regression analysis of the initial rate data using the Prism software package (GraphPad Prism version 6.0c for Macintosh, GraphPad Software Inc., San Diego, USA).
Compounds with a Cisplatin sensitization value of <0.02 μM are marked with “+++.” Compounds with a Ki value >0.02 μM but <0.2 μM are marked with “++.” Compounds with a Ki value >0.2 μM but <5 μM are marked with “+.”

Sequence of ATR kinase (full-length ATR) (Q13535 whole entry): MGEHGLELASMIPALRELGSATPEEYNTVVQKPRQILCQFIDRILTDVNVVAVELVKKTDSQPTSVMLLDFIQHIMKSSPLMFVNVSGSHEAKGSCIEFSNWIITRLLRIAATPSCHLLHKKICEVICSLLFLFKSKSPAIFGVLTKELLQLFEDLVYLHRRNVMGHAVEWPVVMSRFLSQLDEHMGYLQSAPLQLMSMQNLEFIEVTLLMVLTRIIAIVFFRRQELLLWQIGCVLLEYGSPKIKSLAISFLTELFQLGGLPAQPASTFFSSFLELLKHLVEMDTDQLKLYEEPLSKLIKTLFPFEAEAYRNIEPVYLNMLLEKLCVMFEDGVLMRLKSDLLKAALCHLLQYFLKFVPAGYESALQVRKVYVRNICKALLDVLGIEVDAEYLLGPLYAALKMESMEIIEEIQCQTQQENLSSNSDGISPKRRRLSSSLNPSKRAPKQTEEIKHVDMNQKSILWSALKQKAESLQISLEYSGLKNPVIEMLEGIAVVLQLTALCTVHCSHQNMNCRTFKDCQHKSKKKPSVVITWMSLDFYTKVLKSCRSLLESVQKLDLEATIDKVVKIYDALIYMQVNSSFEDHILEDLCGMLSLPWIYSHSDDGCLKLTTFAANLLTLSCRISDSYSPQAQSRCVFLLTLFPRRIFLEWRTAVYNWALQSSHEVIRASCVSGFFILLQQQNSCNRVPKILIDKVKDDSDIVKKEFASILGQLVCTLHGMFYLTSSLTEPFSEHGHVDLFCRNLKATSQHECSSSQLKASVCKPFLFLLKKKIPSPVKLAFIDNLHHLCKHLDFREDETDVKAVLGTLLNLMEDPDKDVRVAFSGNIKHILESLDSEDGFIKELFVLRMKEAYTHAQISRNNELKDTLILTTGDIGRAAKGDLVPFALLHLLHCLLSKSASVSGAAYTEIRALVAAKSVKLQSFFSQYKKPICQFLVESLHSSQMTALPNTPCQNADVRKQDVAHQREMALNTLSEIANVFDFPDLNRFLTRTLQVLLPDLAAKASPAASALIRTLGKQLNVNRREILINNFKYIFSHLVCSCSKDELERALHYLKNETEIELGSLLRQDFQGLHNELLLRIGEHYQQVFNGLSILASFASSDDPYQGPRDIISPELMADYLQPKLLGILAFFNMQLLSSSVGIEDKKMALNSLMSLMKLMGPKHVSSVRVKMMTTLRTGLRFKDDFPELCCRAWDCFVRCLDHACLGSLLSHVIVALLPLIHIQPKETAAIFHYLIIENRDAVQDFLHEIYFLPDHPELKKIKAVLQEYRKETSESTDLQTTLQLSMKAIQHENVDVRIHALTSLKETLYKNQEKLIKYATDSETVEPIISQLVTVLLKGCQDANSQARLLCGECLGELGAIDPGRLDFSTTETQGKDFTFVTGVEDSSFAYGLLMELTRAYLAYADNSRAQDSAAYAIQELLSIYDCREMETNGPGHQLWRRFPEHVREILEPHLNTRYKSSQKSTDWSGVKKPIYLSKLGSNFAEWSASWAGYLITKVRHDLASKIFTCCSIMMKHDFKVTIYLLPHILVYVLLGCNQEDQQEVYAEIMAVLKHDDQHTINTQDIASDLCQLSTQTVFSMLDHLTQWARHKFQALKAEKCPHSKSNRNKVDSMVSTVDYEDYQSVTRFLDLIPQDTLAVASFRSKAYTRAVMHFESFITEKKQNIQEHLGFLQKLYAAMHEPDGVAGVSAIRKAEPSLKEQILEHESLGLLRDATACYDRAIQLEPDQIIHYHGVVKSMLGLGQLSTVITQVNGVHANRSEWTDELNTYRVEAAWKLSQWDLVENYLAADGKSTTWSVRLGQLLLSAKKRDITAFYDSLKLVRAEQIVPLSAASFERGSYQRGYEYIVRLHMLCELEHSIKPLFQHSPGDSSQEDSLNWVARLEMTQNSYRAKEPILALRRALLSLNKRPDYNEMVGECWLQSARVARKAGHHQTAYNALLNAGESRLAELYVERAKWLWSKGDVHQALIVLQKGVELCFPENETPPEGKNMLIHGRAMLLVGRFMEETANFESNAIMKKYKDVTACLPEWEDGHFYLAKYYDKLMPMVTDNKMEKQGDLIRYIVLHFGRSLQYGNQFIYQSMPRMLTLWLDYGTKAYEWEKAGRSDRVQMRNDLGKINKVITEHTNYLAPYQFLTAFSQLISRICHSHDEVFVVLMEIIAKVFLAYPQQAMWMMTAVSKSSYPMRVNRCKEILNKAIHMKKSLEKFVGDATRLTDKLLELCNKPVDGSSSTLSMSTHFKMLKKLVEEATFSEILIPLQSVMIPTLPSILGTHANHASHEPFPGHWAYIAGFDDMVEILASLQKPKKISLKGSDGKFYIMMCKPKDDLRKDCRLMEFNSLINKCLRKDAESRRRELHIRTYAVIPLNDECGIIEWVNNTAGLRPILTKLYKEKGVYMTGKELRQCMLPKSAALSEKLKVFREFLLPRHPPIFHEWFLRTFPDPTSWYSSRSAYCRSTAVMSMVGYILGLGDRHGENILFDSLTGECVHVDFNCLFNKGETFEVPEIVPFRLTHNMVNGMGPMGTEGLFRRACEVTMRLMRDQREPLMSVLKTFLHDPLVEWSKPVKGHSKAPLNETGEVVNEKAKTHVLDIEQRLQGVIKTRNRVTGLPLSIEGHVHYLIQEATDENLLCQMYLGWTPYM
Sequence of ATR kinase, in the presence of partner proteins ATRIP, CLK2 and TopBP1 (Q13535 whole entry): as above
Sequence of ATR kinase, in the presence of partner proteins ATRIP, CLK2 and TopBP1 (Q8WXE1 whole entry partner): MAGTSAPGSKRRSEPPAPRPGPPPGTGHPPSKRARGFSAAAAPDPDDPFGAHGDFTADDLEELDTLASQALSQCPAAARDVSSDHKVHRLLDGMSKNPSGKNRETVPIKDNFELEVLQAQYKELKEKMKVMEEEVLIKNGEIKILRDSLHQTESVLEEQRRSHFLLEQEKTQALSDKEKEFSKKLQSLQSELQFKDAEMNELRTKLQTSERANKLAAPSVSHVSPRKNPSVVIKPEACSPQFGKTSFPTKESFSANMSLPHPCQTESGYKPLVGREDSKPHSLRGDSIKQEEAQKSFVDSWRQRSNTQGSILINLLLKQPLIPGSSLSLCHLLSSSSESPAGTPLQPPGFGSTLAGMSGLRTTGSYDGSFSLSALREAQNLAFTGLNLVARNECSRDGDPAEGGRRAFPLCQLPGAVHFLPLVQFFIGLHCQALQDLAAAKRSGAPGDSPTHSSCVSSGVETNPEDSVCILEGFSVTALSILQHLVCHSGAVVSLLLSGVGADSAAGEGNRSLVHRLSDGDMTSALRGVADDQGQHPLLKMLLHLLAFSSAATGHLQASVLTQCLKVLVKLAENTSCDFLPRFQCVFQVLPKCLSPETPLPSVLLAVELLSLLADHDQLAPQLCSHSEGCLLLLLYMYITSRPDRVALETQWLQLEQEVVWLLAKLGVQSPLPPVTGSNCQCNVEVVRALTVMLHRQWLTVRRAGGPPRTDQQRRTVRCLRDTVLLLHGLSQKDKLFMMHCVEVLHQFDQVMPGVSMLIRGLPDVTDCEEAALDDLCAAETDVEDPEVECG

Row | Ki [2] | Ki [3] | Structure (SMILES) | Cisplatin Sensitization Assay [1]
1 | 1 to 5 µM | – | CNCCCN(C)C(=O)C1CCN(c2c(F)cncc2NC(=O)c2c(N)nn3cc(F)cnc23)CC1 [I-G-17] | + (Compounds with a Cisplatin sensitization value >0.2 μM but <5 μM are marked with “+.”)
2 | 0.01 to 1 µM | < 0.02 µM | COC1CN(C(=O)C2CCN(c3c(F)cncc3NC(=O)c3c(N)nn4cc(F)cnc34)CC2)C1 [I-G-21, 2-amino-6-fluoro-N-(5-fluoro-4-(4-(3-methoxyazetidine-1-carbonyl)piperidin-1-yl)pyridin-3-yl)pyrazolo[1,5-a]pyrimidine-3-carboxamide] | –
3 | 0.01 to 1 µM | < 0.02 µM | Nc1nn2cc(F)cnc2c1C(=O)Nc1cnccc1N1CCN(C2COC2)CC1 [I-N-1, 2-amino-6-fluoro-N-(4-(4-(oxetan-3-yl)piperazin-1-yl)pyridin-3-yl)pyrazolo[1,5-a]pyrimidine-3-carboxamide] | –
4 | 0.01 to 1 µM | < 0.02 µM | Nc1nn2cc(F)cnc2c1C(=O)Nc1cncc(F)c1N1CCN2C(=O)CC[C@@H]2C1 [I-N-186, (R)-2-amino-6-fluoro-N-(5-fluoro-4-(6-oxohexahydropyrrolo[1,2-a]pyrazin-2(1H)-yl)pyridin-3-yl)pyrazolo[1,5-a]pyrimidine-3-carboxamide] | –
5 | 0.01 to 1 µM | < 0.02 µM | CC(=O)N1CCN(c2c(F)cncc2NC(=O)c2c(N)nn3cc(F)cnc23)CC1 [I-N-275, N-(4-(4-acetylpiperazin-1-yl)-5-fluoropyridin-3-yl)-2-amino-6-fluoropyrazolo[1,5-a]pyrimidine-3-carboxamide] | –

Second part, the molecule before the results:

Row | Structure (SMILES) | Ki [2] | Ki [3] | Cisplatin Sensitization Assay [1]
6 | Nc1nn2cc(F)cnc2c1C(=O)Nc1cncc(F)c1N1CCC(C(=O)N2CCN(C3COC3)CC2)CC1 [I-G-32, 2-amino-6-fluoro-N-[5-fluoro-4-[4-[4-(oxetan-3-yl)piperazine-1-carbonyl]-1-piperidyl]-3-pyridyl]pyrazolo[1,5-a]pyrimidine-3-carboxamide] | 0.01 to 1 µM | < 0.02 µM | –
7 | Nc1nn2cc(F)cnc2c1C(=O)Nc1cncc(F)c1N1CCN(C2COC2)CC1 [I-N-13, 2-amino-6-fluoro-N-(5-fluoro-4-(4-(oxetan-3-yl)piperazin-1-yl)pyridin-3-yl)pyrazolo[1,5-a]pyrimidine-3-carboxamide] | 0.01 to 1 µM | < 0.02 µM | –
8 | Nc1nn2cc(Cl)cnc2c1C(=O)Nc1cnccc1N1CCN(C2COC2)CC1 [I-N-58, 2-amino-6-chloro-N-(4-(4-(oxetan-3-yl)piperazin-1-yl)pyridin-3-yl)pyrazolo[1,5-a]pyrimidine-3-carboxamide] | 0.01 to 1 µM | < 0.02 µM | –
9 | Nc1nn2cc(F)cnc2c1C(=O)Nc1cncc(F)c1N1CCNCC1 [I-N-118, 2-amino-6-fluoro-N-(5-fluoro-4-(piperazin-1-yl)pyridin-3-yl)pyrazolo[1,5-a]pyrimidine-3-carboxamide] | 0.01 to 1 µM | < 0.02 µM | –
10 | CN1CCN(S(=O)(=O)C2CCN(c3c(F)cncc3NC(=O)c3c(N)nn4cc(F)cnc34)CC2)CC1 [I-N-166, 2-amino-6-fluoro-N-(5-fluoro-4-(4-((4-methylpiperazin-1-yl)sulfonyl)piperidin-1-yl)pyridin-3-yl)pyrazolo[1,5-a]pyrimidine-3-carboxamide] | 0.01 to 1 µM | < 0.02 µM | –
